# Results published in patent publication US10631557B2, “Preservative system for acidic beverages based on sequestrants” (PepsiCo, Inc., priority 2008, dated 2020).
# Several values for one entry are separate records, joined by “and”; a condition that tells them apart may be missing. Identical values can stand only once. Like-named read-outs stand apart in the source and are kept apart here.
# Legend:
# Saccharomyces cerevisae = assay: Growth in beverage acidified to pH 3.6 with malic acid (Example 33); type: cell-based
# Strain Y3 [1] = assay: Yeast strains spotted on agar-solidified beverage plates containing a weak organic acid (Example 25); type: cell-based, Zygossacharomyces bailii; conditions: sodium benzoate 700 or 1000 ppm, potassium sorbate 500 or 800 ppm, cinnamic acid 25-200 ppm
# Method: A 2 fold concentrate of beverage was prepared and was then mixed with an equal volume of 15% molten agar. Before solidification of the agar, the single strength beverage formulation containing 7.5% molten agar, was then divided into aliquots and to each separate aliquot was added, with the exception of one, sodium benzoate, potassium sorbate or cinnamic acid. The aliquot not receiving either potassium sorbate or cinnamic acid served as a positive control. While the agar was still molten, the agar-beverage aliquots (containing a single weak acid at a specified concentration) were poured into separate Petri plates. In Two agar plates. sodium benzoate was present at either 700 ppm or 1000 ppm) Two agar plates contained potassium sorbate (500 or 800 ppm). Six agar plates contained cinnamic acid ranging in concentrations of 25-200 ppm. Agar solidification essentially provides single strength beverage formulation in a semi-solid state.
# The 2 fold concentrate of single strength beverage and the agar supplemented single strength beverage is prepared as follows:
# After solidification of juice-agar mixture, various yeast strains (FIG. 2A) were spotted to the gel-surface of each type of mixture employing an identical pattern in each test (FIG. 2B) such that it was possible to identify the outgrowth of specific individual strains. […]
# [2] = test system: all 7 bio-indicator strains; assay: Inoculated 2% juice beverage pH 3.4, sequestrant and weak acid combinations (Examples 27-29); type: cell-based; conditions: for SHMP concentration that prohibits outgrowth of all 7 bio-indicator strains: potassium sorbate 0.015%
# Text: (§1) Copper, less than 1 microgram per liter Zinc less than 1 microgram per liter, Nickel, less than 1 microgram per liter and Iron less than 0.1 microgram per liter. The water hardness was/is adjusted to 50 ppm through addition of mixture of CaCl2 and MgCl2.
# (§2) The spoilage organisms for the following examples are identified as follows: Y3, Zygosaccharomyces bailii isolate of Pepsi (Strain 906); C-7UP, Brettanomyces isolate of Pepsi, (Cherry 7-UP); Spore, ascospore preparation of Saccharomyces cerevisiae isolate of Pepsi (strain “spore”). Y22, ATCC 60484 Zygosacharomyces bailii; M1, Paecilomyces isolate of Pepsi; Y107 ATCC 52407; M2 ATCC 36614 Byssochlamys nieva. An inoculum of approximately 40 per milliliter was/is employed for each organism. All test samples were/are incubated 16 weeks at 25 C.
# (§3) A preparation of beverage was divided into three aliquots; one was supplemented with EDTA (30 ppm) and the remaining two aliquots were supplemented with either 15 or 30 ppm EDDS.
# (§4) The beverage aliquots were identical with the exception of the presence or concentration of either EDTA or EDDS. Each aliquot was divided further into smaller volume test samples wherein the concentration of potassium sorbate varies from 0-1500 ppm (0-0.15%). The concentration of EDTA or EDDS is held constant. Under these circumstances, it is possible to establish whether either EDTA or EDDS permitted the use of lowered concentrations of potassium sorbate to preserve a product of pH 3.4. […] The beverage is formulated to contain 50 ppm hardness.
# The biodegradable sequestrant ethylene diamine disuccinic acid was admixed with a sodium hexametaphosphate and cinnamic acid in the beverage as shown in the formula for the beverage.
# A 2% fruit juice based non-carbonated beverage of pH 3.4 and about 12 Brix was formed by combining the following ingredients.
# The biodegradable sequestrant ethylene diamine disuccinic acid was admixed with a bis-phosphonate (Etidronate) wherein the two sequestrants combined to limit the availability of divalent cations to spoilage microorganisms. The beverage was also supplemented with potassium sorbate.
# (§5) A 2% fruit juice based non-carbonated beverage of pH 3.4 and about 12Brix was formed by combining the following ingredients.
# [3] = 25 C; cited from earlier work
# [4] = Stability against heat or acid induced hydrolysis in beverage; type: physicochemical; conditions: thermal processing or ambient aqueous solution
# Method: The maximum temperature of product in container of 71.3° C. permits the use of standard PET containers as opposed to the environmentally less-sound heat-set PET containers typically employed in hot fill operations. […] A formulation containing SHMP in place of bis-phosphonate will fail because of the degradation of SHMP that occurs during thermal processing.
# Furthermore, the problem of pH drift that accompanies the use of SHMP is avoided. Substituting EDDS for EDTA avoids the concerns associated with employing a substance that is not environmentally sound.
# Bis-phosphonates, as a substitute for SHMP, allows for the use of thermal processing of beverage in that all bis-phosphonates are stable against heat or acid induced hydrolysis. Such is not the case for polyphosphates such as SHMP. Furthermore, the problem of pH drift that accompanies the use of SHMP at ambient temperatures is avoided. Substituting EDDS for EDTA avoids the concerns associated with employing a substance that is not environmentally sound.
# [5] = test system: bio-indicators in the absence of Y3; conditions: potassium sorbate alone, pH 3.4, 16 weeks at 25 C, FIG. 3A
# Text: as §1, §2
# (§6) A preparation of beverage was divided into multiple small volume aliquots, each aliquot containing a different concentration of potassium sorbate. The range of concentration of potassium sorbate is 0-0.094% (0-940 ppm). Preparations (aliquots) of beverage containing potassium sorbate at each test concentration (48 different values) are inoculated separately with one of 7 different spoilage organisms (bio-indicator) for a total of 336 test samples.
# (§7) The 2% fruit juice based non-carbonated beverage of pH 3.4 and about 12 Brix was generated by combining the following ingredients.
# strain Y3 [6] = conditions: potassium sorbate alone
# Text: as §1, §2, §6, §7
# Mold (M1 & M6) = conditions: pH 3.4
# Text: as §1, §2, §6, §3, §5, §4
# [7] = acid pH
# Text: Further, at least one regulatory agency in Asia has established an upper limit for the use of potassium sorbate at 50 ppm. If other regulatory agencies follow suite, it will be necessary to broadly apply a complement to potassium sorbate. […] Beverages are generally produced from concentrates and a […] beverage concentrate should contain 1200-1500 ppm potassium sorbate to yield a finished beverage concentration of 240-300 ppm. This often proves problematic during the batching of beverage and it is clear that a final beverage formulation containing 50-150 ppm potassium sorbate would be favored.
smiles,measurement,setting,value
"NCCCC(O)(P(=O)(O)O)P(=O)(O)O [Alendronate, alendronate]",effect on growth rate of Saccharomyces cerevisae,"Saccharomyces cerevisae; 0.3% concentration, same beverage formulation pH 3.6",retards the growth rate
"O=C(O)C=Cc1ccccc1 [Cinnamic acid, cinnamic acid]",tolerance of strain Y3 to organic acid preservative (outgrowth on plate),Strain Y3 [1],among the most tolerant strains
"O=C(O)CC(NCCNC(CC(=O)O)C(=O)O)C(=O)O (centres unmarked) [EDDS, ethylenediamine-N,N′-disuccinic acid]",preservative performance compared with EDTA when combined with a single weak acid preservative,"[2]; 15 or 30 ppm EDDS vs 30 ppm EDTA, potassium sorbate varied, FIGS. 4A-4C",equivalent to EDTA
"O=C(O)CN(CCN(CC(=O)O)CC(=O)O)CC(=O)O [EDTA, ethylenediamine tetraacetic acid]",log K for sodium,[3],1.7
"CC(O)(P(=O)(O)O)P(=O)(O)O [Etridonate, (1-hydroxyethylidene)bis-phosphonate]",Etridonate concentration that prevents outgrowth of all seven spoilage organisms,"[2]; with 30 ppm EDDS (so in the source) and 150 ppm potassium sorbate, pH 3.4, FIG. 6D",250 ppm
same,Etridonate concentration that prohibits outgrowth of all seven bio-indicator strains,"[2]; with 30 ppm EDDS and 150 ppm potassium sorbate, pH 3.4, FIG. 6C",< 425 ppm and < 450 ppm
"CCCCCN(C)CCC(O)(P(=O)(O)O)P(=O)(O)O [Ibandronate, ibandronate]",effect on growth of Saccharomyces cerevisae,"Saccharomyces cerevisae; about 300 ppm, beverage pH 3.6 with malic acid",impair the growth
"O=C([O-])C=Cc1ccccc1.[K+] [K+cinnamate, Potassium Cinnamate]",K+cinnamate concentration that prohibits outgrowth of all 7 bio-indicator strains,"[2]; with 30 ppm EDDS and 750 ppm SHMP, pH 3.4, FIG. 5B",no more than 50 ppm
same,K+cinnamate concentration that prohibits outgrowth of all 7 bio-indicator strains,"[2]; with 30 ppm EDTA and 750 ppm SHMP, pH 3.4, FIG. 5A",75 ppm
"O=P1([O-])OP(=O)([O-])OP(=O)([O-])OP(=O)([O-])OP(=O)([O-])OP(=O)([O-])O1.[Na+].[Na+].[Na+].[Na+].[Na+].[Na+] [SHMP, sodium hexametaphosphate]",SHMP concentration that prohibits outgrowth of all 7 bio-indicator strains,"[2]; with 30 ppm EDDS, pH 3.4, FIG. 6A",280 ppm
same,SHMP concentration that prohibits outgrowth of all 7 bio-indicator strains,"[2]; with 30 ppm EDTA, pH 3.4, FIG. 6B",250 ppm
same,stability against heat or acid induced hydrolysis,[4],degradation
C/C=C/C=C/C(=O)[O-].[K+] [potassium sorbate],amount of potassium sorbate required to preserve product in the absence of Y3,[5],220-250 ppm
same,concentration of potassium sorbate required to inhibit Y3 or similar strains,"strain Y3 [6]; pH 3.4, 16 weeks at 25 C, FIG. 3A",550-600 ppm
same,range of potassium sorbate concentrations with both growth and growth-free samples of Y3,"strain Y3 [6]; pH 3.4, FIG. 3A",460-660 ppm
same,concentration of potassium sorbate required to inhibit mold,Mold (M1 & M6); combined with EDDS (30 ppm),140-160 ppm
same,concentration of potassium sorbate required to inhibit mold,Mold (M1 & M6); combined with EDTA (30 ppm),140-160 ppm
same,concentration of potassium sorbate required to inhibit mold,Mold (M1 & M6); potassium sorbate employed alone,180-200 ppm
same,rate of dissolution,[7],measurably low
same,solubility,[7],not particularly soluble
